{
  "source": "patent US11111500B2",
  "about": "“Mutated protoporphyrinogen IX oxidase (PPX) genes” (CIBUS US LLC, priority 2010, dated 2021)",
  "test_system": "potato plastidal PPX",
  "assay": "Tolerance to flumioxazin of HemG mutant E. coli complemented with potato plastidal PPX (liquid selection, colony count)",
  "type": "cell-based, Solanum tuberosum",
  "source_text": "StcPPX1, less its chloroplast transit peptide was cloned from cDNA into Cibus' proprietary functional screening vector. This vector may be used both for functional screening, and for GRON QC. The potato PPX genes were used to complement the HemG mutant strain of E. coli, which lacks a functional HemG gene, a bacterial homolog of PPX. Without a complementing gene, the media must be supplemented with hematin for E. coli growth.\nIn order to assess mutations that confer tolerance to PPX inhibitors such as Chateau (flumioxazin-Valent/Sumitomo), Naja (diphenylether—MAI) or Kixor (saflufenacil—BASF). Pure active ingredients for the PPX inhibiting herbicides Chateau (flumioxazin—Valent/Sumitomo), Spartan (sulfentrazone—FMC) and Kixor/Sharpen (saflufenacil—BASF) were obtained. […]\nLiquid culture selection conditions were developed for both sulfentrazone and flumioxazin. […] Spectrophotometric readings (OD600) were taken for each sample (1:4 dilution) and a sample of each plated on LB-Chlor-IPTG plates to determine whether the OD600 correlated with the number of viable colonies. […]\nRandomly mutagenized plasmids (5′ and 3′ ends) were transformed into XL1-Blue E. coli cells. […] Colony counts were compared between the two and mutation tolerance determined based on the percentage of colonies on the 0.75 mM sulfentrazone plates as compared with those on the 0 mM plates. […]",
  "data": [
    {"molecule": "C#CCN1C(=O)COc2cc(F)c(N3C(=O)C4=C(CCCC4)C3=O)cc21", "note": "[flumioxazin]", "values": [
      {"measurement": "colony numbers against the WT gene with increasing flumioxazin", "setting": "0 to 10 mM in 1 mL liquid cultures", "value": "steadily decreasing colony numbers"},
      {"measurement": "growth of the wildtype construct at 10 mM flumioxazin", "setting": "10 mM flumioxazin, liquid selection", "value": "limited growth"}
    ]}
  ]
}
